# Values of other authors as cited in US20090018199A1, “Methods of Administering 3, 3, 14, 14 Tetramethyl Hexadecane 1, 16 Dioic Acid” (SYNDROME X LTD., priority 2003, published 2009).
# Tested on: patients
# Details: follow-up 15 years total, patients randomized to niacin
smiles,measurement,value
"O=C(O)c1cccnc1 [Niacin, niacin]",decrease in all-cause mortality,11%
